Biological target: T1, human mGlu5a receptor (Homo sapiens, UniProt P41594)
T1 construct: expressed in transfected cells
Experiment: Intracellular Ca2+ mobilization assay
Type: cell-based
Conditions: for Emax: HEK293, maximal response in % of the maximal stimulatory effect obtained with saturating concentrations of L-glutamate, HEK-293 human mGlu5a cells, L-glutamate at EC20, read-out: Efficacy (%); for EC50: HEK-293 cells stably transfected with human mGlu5a receptor, pre-incubation 10-30 min with test compound, then L-glutamate at EC20 (typically around 80 μM), Fluo-4AM fluorescence, read-out: EC50 (nM) mGluR5 PAM
Protocol: A monoclonal HEK-293 cell line stably transfected with a cDNA encoding for the human mGlu5a receptor was generated; for the work with mGlu5 Positive Allosteric Modulators (PAMs), a cell line with low receptor expression levels and low constitutive receptor activity was selected to allow the differentiation of agonistic versus PAM activity. Cells were cultured according to standard protocols (Freshney, 2000) in Dulbecco's Modified Eagle Medium with high glucose supplemented with 1 mM glutamine, 10% (vol/vol) heat-inactivated bovine calf serum, Penicillin/Streptomycin, 50 μg/ml hygromycin and 15 μg/ml blasticidin (all cell culture reagents and antibiotics from Invitrogen, Basel, Switzerland).
About 24 hrs before an experiment, 5×10^4 cells/well were seeded in poly-D-lysine coated, black/clear-bottomed 96-well plates. The cells were loaded with 2.5 μM Fluo-4AM in loading buffer (1×HBSS, 20 mM HEPES) for 1 hr at 37° C. and washed five times with loading buffer. The cells were transferred into a Functional Drug Screening System 7000 (Hamamatsu, Paris, France), and 11 half logarithmic serial dilutions of test compound at 37° C. were added and the cells were incubated for 10-30 min. with on-line recording of fluorescence. Following this pre-incubation step, the agonist L-glutamate was added to the cells at a concentration corresponding to EC20 (typically around 80 μM) with on-line recording of fluorescence; in order to account for day-to-day variations in the responsiveness of cells, the EC20 of glutamate was determined immediately ahead of each experiment by recording of a full dose-response curve of glutamate.
Responses were measured as peak increase in fluorescence minus basal (i.e. fluorescence without addition of L-glutamate), normalized to the maximal stimulatory effect obtained with saturating concentrations of L-glutamate. Graphs were plotted with the % maximal stimulatory using XLfit, a curve fitting program that iteratively plots the data using Levenburg Marquardt algorithm. The single site competition analysis equation used was y=A+((B−A)/(1+((x/C)D))), where y is the % maximal stimulatory effect, A is the minimum y, B is the maximum y, C is the EC50, x is the log 10 of the concentration of the competing compound and D is the slope of the curve (the Hill Coefficient). From these curves the EC50 (concentration at which half maximal stimulation was achieved), the Hill coefficient as well as the maximal response in % of the maximal stimulatory effect obtained with saturating concentrations of L-glutamate were calculated.
A depression of the signal observed after addition of the EC20 concentration of L-glutamate was indicative of an inhibitory activity of the test compound.

T1 sequence (P41594 21-1180 isoform P41594-2 limits assumed): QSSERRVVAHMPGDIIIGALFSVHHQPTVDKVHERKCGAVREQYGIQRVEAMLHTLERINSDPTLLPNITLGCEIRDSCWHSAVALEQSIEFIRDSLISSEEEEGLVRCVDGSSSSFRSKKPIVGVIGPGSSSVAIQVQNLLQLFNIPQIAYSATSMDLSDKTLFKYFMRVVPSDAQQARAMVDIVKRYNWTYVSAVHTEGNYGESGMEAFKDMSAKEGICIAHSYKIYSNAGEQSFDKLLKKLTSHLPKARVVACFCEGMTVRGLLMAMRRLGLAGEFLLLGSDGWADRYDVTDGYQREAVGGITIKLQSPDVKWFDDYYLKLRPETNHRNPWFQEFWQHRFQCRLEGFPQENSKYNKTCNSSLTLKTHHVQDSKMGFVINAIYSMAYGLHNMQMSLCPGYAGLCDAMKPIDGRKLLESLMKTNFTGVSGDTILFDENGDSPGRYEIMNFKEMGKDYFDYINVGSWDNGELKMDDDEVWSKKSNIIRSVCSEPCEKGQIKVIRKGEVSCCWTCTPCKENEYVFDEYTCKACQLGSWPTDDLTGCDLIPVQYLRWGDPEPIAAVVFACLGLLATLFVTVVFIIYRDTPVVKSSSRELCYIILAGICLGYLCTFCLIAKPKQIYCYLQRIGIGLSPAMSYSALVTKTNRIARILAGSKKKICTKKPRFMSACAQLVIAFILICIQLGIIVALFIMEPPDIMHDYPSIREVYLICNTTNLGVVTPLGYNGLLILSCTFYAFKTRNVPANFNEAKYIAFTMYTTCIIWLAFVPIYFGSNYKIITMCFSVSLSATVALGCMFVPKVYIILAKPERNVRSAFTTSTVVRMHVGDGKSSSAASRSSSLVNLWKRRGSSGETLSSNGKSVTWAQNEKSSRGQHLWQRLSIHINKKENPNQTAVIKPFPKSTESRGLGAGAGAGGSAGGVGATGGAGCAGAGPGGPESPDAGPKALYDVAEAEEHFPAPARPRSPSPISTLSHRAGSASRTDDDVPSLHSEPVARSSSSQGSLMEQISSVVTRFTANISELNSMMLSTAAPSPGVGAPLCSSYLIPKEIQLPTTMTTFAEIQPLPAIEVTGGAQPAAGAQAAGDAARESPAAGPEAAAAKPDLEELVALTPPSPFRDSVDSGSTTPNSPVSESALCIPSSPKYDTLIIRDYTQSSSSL

Structure (SMILES) | Emax [%] | EC50 [nM]
C(#Cc1cnc(NC2CCCC2)nc1)c1ccccc1 [Example 1, Cyclopentyl-(5-phenylethynyl-pyrimidin-2-yl)-amine] | 40 | 26
CC1(C)CCC(=O)N(Cc2ccc(C#Cc3ccccc3)cn2)C1 [Example 38, 5,5-Dimethyl-1-(5-phenylethynyl-pyridin-2-ylmethyl)-piperidin-2-one] | 94 | 161
O[C@H]1CC[C@H](Oc2ncc(C#Cc3ccccc3)cn2)CC1 [Example 23, trans-4-(5-Phenylethynyl-pyrimidin-2-yloxy)-cyclohexanol] | 94 | 110
CN(c1ccc(C#Cc2ccccc2)cn1)C1CCOCC1 [Example 44] | 103 | 338
O=C1COCCN1Cc1ccc(C#Cc2ccccc2)cn1 [Example 30, 4-(5-Phenylethynyl-pyridin-2-ylmethyl)-morpholin-3-one] | 121 | 83
O[C@H]1CC[C@H](Nc2ncc(C#Cc3ccccc3)cc2F)CC1 [Example 18, trans-4-(3-Fluoro-5-phenylethynyl-pyridin-2-ylamino)-cyclohexanol] | 116 | 192

Reference: patent publication US8716316B2 (Hoffmann-La Roche Inc., priority 2009, dated 2014)
